# Laboratory results: patent publication US9963482B2, “Phosphatidylinositol-3-kinase inhibitor and pharmaceutical composition” (Tohoku University, priority 2011, dated 2018)
# Read-outs that look alike come from different tables or passages of the source.
# Key:
# [1] = molecular target: T1, human p110α expressed in budding yeast (Homo sapiens, UniProt P42336); assay: Screening of PI3K inhibitor using budding yeast (recovery from cell proliferation disorder caused by p110α); assay type: cell-based; settings: AD1-9 transformant expressing p110α, compound 5 μM, 24 hours, average of three tests
# T1 construct: expressed in transfected cells; host or cells: Saccharomyces cerevisiae AD1-9 (LEU2-disrupted), galactose-induced
# T1 sequence (P42336 whole entry): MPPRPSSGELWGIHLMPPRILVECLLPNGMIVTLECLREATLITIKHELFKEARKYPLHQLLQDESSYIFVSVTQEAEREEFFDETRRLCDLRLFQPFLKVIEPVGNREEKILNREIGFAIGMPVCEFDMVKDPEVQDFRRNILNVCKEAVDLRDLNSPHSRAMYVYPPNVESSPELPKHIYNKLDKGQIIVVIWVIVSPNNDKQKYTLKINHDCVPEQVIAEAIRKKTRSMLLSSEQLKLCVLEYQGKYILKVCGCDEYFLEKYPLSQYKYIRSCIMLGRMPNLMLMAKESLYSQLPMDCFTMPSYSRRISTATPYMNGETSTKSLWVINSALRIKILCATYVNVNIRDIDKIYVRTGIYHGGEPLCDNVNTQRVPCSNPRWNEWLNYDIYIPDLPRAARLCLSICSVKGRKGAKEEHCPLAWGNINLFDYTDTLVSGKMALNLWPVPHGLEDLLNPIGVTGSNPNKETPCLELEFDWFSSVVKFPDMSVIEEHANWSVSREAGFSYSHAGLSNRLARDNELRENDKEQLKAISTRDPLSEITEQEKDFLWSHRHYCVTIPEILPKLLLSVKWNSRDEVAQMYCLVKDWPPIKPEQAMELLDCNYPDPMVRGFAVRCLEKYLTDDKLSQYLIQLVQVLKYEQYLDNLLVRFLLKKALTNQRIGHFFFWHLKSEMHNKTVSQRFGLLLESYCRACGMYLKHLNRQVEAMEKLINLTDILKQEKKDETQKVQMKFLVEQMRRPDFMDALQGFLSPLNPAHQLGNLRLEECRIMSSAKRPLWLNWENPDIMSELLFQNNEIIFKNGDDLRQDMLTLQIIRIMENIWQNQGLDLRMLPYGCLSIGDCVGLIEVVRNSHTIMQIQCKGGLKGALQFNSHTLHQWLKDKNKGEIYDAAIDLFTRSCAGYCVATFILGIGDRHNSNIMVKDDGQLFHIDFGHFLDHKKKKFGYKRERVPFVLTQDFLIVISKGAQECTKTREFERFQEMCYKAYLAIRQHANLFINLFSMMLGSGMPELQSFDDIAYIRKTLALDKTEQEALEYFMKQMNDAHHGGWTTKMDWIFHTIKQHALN
# Procedure: AD1-9 strain can be obtained from Nader Nourizad (Stanford Genome Technology Center Stanford University, CA, USA).
# The transformed AD 1-9 strain was cultured at 30° C. in a minimal complete medium SC-U-L containing no uracil and leucine or SGal-U-L in which 2% glucose was replaced with 2% galactose.
# By using the aforementioned system, screening of the compound library, which was obtained from the Screening committee of anticancer drugs supported by grant-in-aid for scientific research on priority area “Cancer” from Ministry of Education, Culture, Sports, Science, and Technology, Japan, was performed. Each compound was added to SGal-U-L liquid medium to constitute a concentration of 0.5 μM or 5 μM and the transformant of AD 1-9 was cultured for 24 hours under shaking. Thereafter, A600 was measured. […] Three independent tests were repeatedly performed to calculate the average value of A600.
# PI3K (p110α/p85α) = molecular target: T2, PI3K (p110α/p85α) (Homo sapiens, UniProt P42336); assay: In vitro PI3K inhibitory activity by mobility shift assay (Carna Biosciences); assay type: biochemical
# T2 construct: purchased Carna Biosciences, Inc. (Kobe); contract measurement
# T2 sequence (P42336 whole entry): as above
# T2 sequence (P27986 whole entry partner): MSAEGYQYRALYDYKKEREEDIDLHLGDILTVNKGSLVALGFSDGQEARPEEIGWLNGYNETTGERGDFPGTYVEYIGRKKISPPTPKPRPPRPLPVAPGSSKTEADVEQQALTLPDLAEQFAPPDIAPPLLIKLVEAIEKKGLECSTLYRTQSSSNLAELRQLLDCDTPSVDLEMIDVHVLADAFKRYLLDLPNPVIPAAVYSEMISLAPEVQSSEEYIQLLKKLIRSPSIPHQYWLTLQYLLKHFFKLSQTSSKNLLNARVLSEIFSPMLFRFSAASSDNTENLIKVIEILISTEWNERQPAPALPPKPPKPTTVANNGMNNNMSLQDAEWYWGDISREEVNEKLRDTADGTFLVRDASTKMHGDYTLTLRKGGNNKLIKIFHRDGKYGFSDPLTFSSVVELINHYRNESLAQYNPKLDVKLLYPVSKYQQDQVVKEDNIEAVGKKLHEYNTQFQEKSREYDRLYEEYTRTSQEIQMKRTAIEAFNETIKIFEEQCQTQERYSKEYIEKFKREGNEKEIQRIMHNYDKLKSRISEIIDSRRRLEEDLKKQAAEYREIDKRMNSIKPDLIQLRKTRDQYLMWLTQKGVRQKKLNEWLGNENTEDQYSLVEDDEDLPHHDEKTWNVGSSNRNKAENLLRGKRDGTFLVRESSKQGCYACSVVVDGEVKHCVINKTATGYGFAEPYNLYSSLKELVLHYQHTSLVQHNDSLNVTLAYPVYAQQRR
# Procedure: The PI3K (p110α/p85α) inhibitory activity was evaluated at Carna Biosciences, Inc. (Kobe) by mobility shift assay which included isolation and quantification of a substrate and the phosphorylated substrate based on the mobility in a capillary (https://www.carnabio.com/japanese/product/search.cgi?mode=profiling). […] After allowing the reaction to occur for 5 hours at room temperature, the mobility shift assay was performed. The test was performed in duplicate.
# Inhibition rate was calculated as follows.
# The value of product/substrate+product when an agent was added thereto was calculated similarly, and the inhibition rate was calculated based on a difference from the control value.
# [2] = system: AKT pathway in PC3 (prostate cancer) cells; assay: AKT pathway inhibition by Western blotting in PC3 cells; assay type: cell-based, human
# Procedure: PC3 cells were obtained from Cell Resource Center for Medical Research of Institute of Development, Aging, and Cancer, Tohoku University. The cells were cultured at 37° C. in the presence of 5% CO2 by using RPMI1640 medium containing inactivated fetal bovine serum at the concentration of 10%.
# Western blotting was performed as follows. Various kinds of the cells treated with each compound were collected and lysed in a lysis buffer (500 mM Tris-HCl pH 7.5, 100 mM NaCl, 2 mM EDTA, 1 mM sodium orthovanadate, 1% NP-40, and 1% protease inhibitor cocktail, manufactured by SIGMA-ALDRICH). After centrifugation, the supernatants were collected.
# The followings were used as primary antibodies.
# As a secondary antibody, “Alexa Fluor680IgG” (trade name, manufactured by Invitrogen) was used. By using “Odyssey Infrared Imaging System” (trade name, manufactured by LI-COR), expression of the protein of interest was determined.
# HCT116 cells [3] = assay: Cytotoxic effect by MTT assay, HCT116; assay type: cell-based, human; settings: HCT116, 24 hours, μM levels
# Procedure: (§1) The human culture cells used were colon cancer cell lines (HCT116, CO115, and RKO). HCT116 and RKO were obtained from American Type Culture Collection (ATCC). CO115 was obtained from John M. Mariadason (Ludwig Institute for Cancer Research, Melbourne, Australia). The cells were cultured at 37° C. in the presence of 5% CO2 by using RPMI1640 medium containing inactivated fetal bovine serum at the concentration of 10%.
# (§2) After 24 hours, the number of live cells was determined by using “Cell counting kit-8” (trade name, manufactured by DOJINDO CO., LTD). […] The amount of formazan dye and the number of live cells are in proportional relationship, and by measuring the absorbance of formazan at 450 nm using a microplate reader (trade name: “SpectraMax M2e”, manufactured by Molecular Devices), the number of live cells was counted.
# RKO cells = assay: Cytotoxic effect by MTT assay, RKO; assay type: cell-based, human; settings: 24 hours, μM levels
# Procedure: as §1, §2
# CO115 cells = assay: Cytotoxic effect by MTT assay, CO115; assay type: cell-based, human; settings: CO115, 24 hours, μM levels
# Procedure: as §1, §2
# HCT116 cells [4] = assay: FACS cell cycle analysis in HCT116 cells; assay type: cell-based, human; settings: HCT116, 24 hours; SAHA 2.5 μM, LY294002 50 μM, FK228 or FK-A5 at low concentration
# Procedure: The cells were collected, fixed with ethanol, stained with iodopropidium/PBS solution, and analyzed by using “Cytomics FC500 Flow Cytometry System” (trade name, manufactured by Beckman Coulter). The cell cycle fractions were calculated by using “Multicycle software” (trade name, manufactured by Phenomix Flow Systems).
# HDAC1 = HDAC1 (Homo sapiens, UniProt Q13547); settings: cited from earlier work
# Sequence of HDAC1 (Q13547 whole entry, species assumed): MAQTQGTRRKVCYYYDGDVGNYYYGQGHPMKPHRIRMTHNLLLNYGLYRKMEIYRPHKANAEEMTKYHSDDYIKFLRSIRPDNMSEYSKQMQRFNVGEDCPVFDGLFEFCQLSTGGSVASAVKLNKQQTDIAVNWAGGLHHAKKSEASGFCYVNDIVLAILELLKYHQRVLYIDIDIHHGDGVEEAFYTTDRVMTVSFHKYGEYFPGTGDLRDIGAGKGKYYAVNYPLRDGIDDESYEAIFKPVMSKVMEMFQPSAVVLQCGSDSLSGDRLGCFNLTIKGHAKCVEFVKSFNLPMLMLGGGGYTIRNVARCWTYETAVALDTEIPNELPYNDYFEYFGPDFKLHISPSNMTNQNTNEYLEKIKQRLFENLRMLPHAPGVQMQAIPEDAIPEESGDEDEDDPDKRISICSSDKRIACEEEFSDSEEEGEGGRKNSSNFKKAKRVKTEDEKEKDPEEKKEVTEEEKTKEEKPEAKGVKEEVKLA
# HDAC6 = molecular target: T3, HDAC6 (Homo sapiens, UniProt Q9UBN7); settings: Table 2; cited from earlier work
# T3 sequence (Q9UBN7 1-1215): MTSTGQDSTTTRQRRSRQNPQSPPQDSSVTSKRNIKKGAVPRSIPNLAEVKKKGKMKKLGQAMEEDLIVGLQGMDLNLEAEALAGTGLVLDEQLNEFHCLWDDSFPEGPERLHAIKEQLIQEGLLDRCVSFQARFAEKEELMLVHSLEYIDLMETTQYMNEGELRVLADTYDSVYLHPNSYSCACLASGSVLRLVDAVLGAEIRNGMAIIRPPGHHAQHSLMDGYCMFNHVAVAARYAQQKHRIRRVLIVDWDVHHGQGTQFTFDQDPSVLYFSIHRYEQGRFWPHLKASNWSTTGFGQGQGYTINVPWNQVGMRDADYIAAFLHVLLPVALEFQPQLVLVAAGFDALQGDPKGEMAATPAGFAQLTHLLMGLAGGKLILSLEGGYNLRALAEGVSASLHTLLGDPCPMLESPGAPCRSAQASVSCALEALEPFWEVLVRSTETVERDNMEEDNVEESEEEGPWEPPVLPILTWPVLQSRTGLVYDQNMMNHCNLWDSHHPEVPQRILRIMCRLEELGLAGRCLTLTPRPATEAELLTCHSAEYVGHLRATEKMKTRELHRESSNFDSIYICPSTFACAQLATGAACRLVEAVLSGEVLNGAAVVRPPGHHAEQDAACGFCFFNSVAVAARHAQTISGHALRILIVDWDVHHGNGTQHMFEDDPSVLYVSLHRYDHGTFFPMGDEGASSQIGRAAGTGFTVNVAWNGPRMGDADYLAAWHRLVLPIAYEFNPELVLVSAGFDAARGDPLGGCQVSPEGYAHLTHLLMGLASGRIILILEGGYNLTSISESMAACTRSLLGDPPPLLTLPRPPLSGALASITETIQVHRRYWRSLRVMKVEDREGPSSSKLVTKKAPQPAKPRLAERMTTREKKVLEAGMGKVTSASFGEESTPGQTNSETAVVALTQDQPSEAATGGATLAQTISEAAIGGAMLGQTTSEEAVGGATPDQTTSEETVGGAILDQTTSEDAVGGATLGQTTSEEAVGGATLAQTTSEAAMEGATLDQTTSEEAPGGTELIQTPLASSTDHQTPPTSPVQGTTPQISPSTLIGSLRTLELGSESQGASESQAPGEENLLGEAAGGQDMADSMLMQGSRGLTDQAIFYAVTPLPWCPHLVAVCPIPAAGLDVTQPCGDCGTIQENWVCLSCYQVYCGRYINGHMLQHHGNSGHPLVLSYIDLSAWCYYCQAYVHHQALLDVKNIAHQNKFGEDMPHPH
compound,measurement,setting,value
CC(C)[C@H]1NC(=O)CC2/C=C/CCSSCC(NC1=O)C(=O)N[C@H](Cc1ccccc1)C(=O)NCC(=O)O2 (stereo in doubt) [FK-A5],A600,[1],0.449
same,IC50,"PI3K (p110α/p85α); 50 μM ATP, read-out: IC50 for PI3K",26.2 µM
same,IC50,"PI3K (p110α/p85α); Table 3, PI3K (p110α/p85α), read-out: PI3K IC50",27.3 µM
same,PI3K activity inhibitory rate,"PI3K (p110α/p85α); compound 20 μM, 50 μM ATP",higher inhibition rate than FK228
same,inhibition at 20 µM,"PI3K (p110α/p85α); compound 20 μM, 50 μM ATP, read-out: PI3K activity inhibitory rate",66.8%
same,"expression level of phosphorylated AKT (Ser-473, Thr-308) over time","[2]; 10 μM, 5 to 180 minutes","lowered the expression level of phosphorylated AKT (Ser-473, Thr-308)"
same,phosphorylated ERK1/2,[2]; 180 minutes,slightly inhibited
same,phosphorylated MEK1/2,[2]; 180 minutes,not inhibited
same,"expression levels of phosphorylated AKT, GSK-3β, mTOR, p70S6K and 4E-BP1","[2]; 180 minutes, varying concentration",inhibited in a concentration dependent manner
same,number of cells at high concentration,HCT116 cells [3],very significantly reduced the number of cells
same,number of cells at high concentration,RKO cells,very significantly reduced the number of cells
same,number of cells at high concentration,CO115 cells,very significantly reduced the number of cells
same,cell cycle arrest,HCT116 cells [4],"induced cell cycle arrest, predominantly at G2/M phase"
same,IC50,HDAC1; Table 2,0.0025 µM
same,IC50,HDAC1; Table 3,0.0025 µM
same,IC50,HDAC6,1.6 µM
